Measured values taken from EP3791884A1, “COMBINATION OF HEPARIN AND MAGNESIUM SALT FOR THE TREATMENT OF VIRAL INFECTIONS” (Bunz, Oskar, priority 2019, dated 2021).
Read-outs that look alike come from different tables or passages of the source.

Columns and labels:
[1] = Zinc test series: cytotoxic effect (not described in the Examples); assay type: cell-based
From the text: (§1) The inventors have also used zinc for some test series (not described in the Examples section). […] Furthermore, the antiviral effect of zinc was not apparent for all adenoviruses tested. An antiviral effect of zinc was detectable only for adenovirus type 5.

[2] = system: adenovirus type 5; experiment: Zinc test series: antiviral effect, adenovirus type 5; assay type: cell-based
From the text: as §1

[3] = system: Adenovirus type 10; experiment: Zinc test series: antiviral effect, adenovirus type 10; assay type: cell-based
From the text: as §1

[4] = system: several types of adenovirus; conditions: cited from earlier work
[5] = system: human adenovirus type 5 (HAdV5); conditions: solely MgCl2, with 25 µmol MgCl2, HAdV5 1000 vpc, CHO-K1 cells
[6] = system: HAdV5; conditions: HeLa cells, HAdV5 1000 vpc, heparin 5 I.U. per well and/or MgCl2 5 µmol per well 4 hrs prior to infection, 26 hrs post infection
[7] = system: HAdV5
[8] = system: HAdV10
[9] = system: H9N2; conditions: MDCKII cells, H9N2 MOI 0,1, Heparin 5 I.U. per well and/or MgCl2 5 µmol per well
[10] = in vivo; cited from earlier work

[Zn] [zinc]
cytotoxic effect [1]: very strong cytotoxic effect
antiviral effect [2]: detectable
infection efficiencies in cells treated with zinc [3]: increased infection efficiencies

NC(=O)c1ncn([C@@H]2O[C@H](CO)[C@@H](O)[C@H]2O)n1 [Ribavirin]
antiviral activity against HAdV species C ([4]; in vitro): antiviral activity
antiviral activity against species A, B, D ([4]; in vitro): limited activation

[Cl-].[Cl-].[Mg+2] [MgCl2, magnesium chloride]
luciferase values [5]: 40%
median fluorescent intensity (MFI) [6]: 41%
luciferase expression levels ([7]; only MgCl2 and virus, compared to untreated cells solely infected with virus): 7%
luciferase expression levels ([7]; only applying virus and MgCl2): about 32%
luciferase expression levels ([8]; only MgCl2 and virus): 12%
luciferase expression levels ([8]; only applying virus and MgCl2): 10%
infected cells (immunofluorescence) [9]: slight decrease

Nc1ccn(C[C@@H](CO)OCP(=O)(O)O)c(=O)n1 [Cidofovir]
toxicity [10]: nephrotoxic

Nc1nc(O)c2ncn(COC(CO)CO)c2n1 [Ganciclovir]
efficiency against adenovirus [4]: not against adenovirus
half-maximal effective concentration (EC50) ([4]; in vitro, relative to plasma): three times higher than in plasma
